Measured values published in patent US20260306640A1, “TECHNOLOGIES TARGETING CELL STATES” (Auron Therapeutics, Inc., priority 2023, published 2026).
Like-named read-outs stand apart in the source and are kept apart here.

Key:
epithelial GSEA = assay: Epithelial GSEA in NCI-H1048 tumors of treated mice; type: in vivo; details: tumors treated as compared to vehicle; FIG. 1 (G)
Method: FIG. 1. Provided compounds can provide various activities including inhibiting tumor growth in vivo. (A): Provided compounds can inhibit tumor growth in vivo. Nude Balb/c mice were inoculated with NCI-H1048 cells in Matrigel. Tumors were allowed to grow up to about 200 mm^3 and mice were then randomized into two groups. Mice were dosed intraperitoneally (i.p.) once per week with vehicle or 30 mg/kg compound 22. Tumor size was measured every three to four days and mice were sacrificed once vehicle tumors reached 2000 mm^3. Error bar is SEM. Dosing started at day 17 post tumor inoculation. (B): Provided technologies can reduce KAT2A and KAT2B levels and histone acetylation levels. […] Vehicle is DMSO. […] Cell count data relative to DMSO control after 8 days of treatment with compound 22 are presented as examples to confirm inhibition. GI50=6 nM. (D): Provided technologies can inhibit tumor growth in vivo. Nude balb/c mice inoculated with H1048 tumors were dosed intraperitoneally once per week (qw i.p.) with vehicle (HbCD) or compound 22. Average tumor volumes+/−SEM from 6 mice are represented. […] See also (A). […] Certain body weights relative to starting weight are presented as examples to confirm tolerability and safety. (F): Provided technologies can reduce KAT2A and KAT2B levels and histone acetylation levels in tumor in vivo. […]

NCI-H1876 cells = assay: Cell growth inhibition, SCLC cell line NCI-H1876 (cell count, day 10); type: cell-based; details: 240 h; NCI-H1876, day 10, cell count
Text: Among other things, provided technologies are useful for treating various diseases, disorders, or conditions. For example, in some embodiments, provided technologies are useful for treating cancer as confirmed in the present Example. […] In some embodiments, provided technologies can inhibit cell proliferation. In some embodiments, the present disclosure provides technologies for assessing various technologies, e.g., compounds, compositions, or methods. Among other things, the present Example provides technologies, e.g., cell growth inhibition assay, for assessing various technologies. […] In some embodiments, the following cell growth inhibition methods are utilized to assess provided technologies.
SCLC: SCLC cell lines NCI-H1048 and NCI-H1876 were cultured in DMEM F12 media with 5% FBS, 1% Penicillin/Streptomycin and HITES supplement (Hydrocortisone, Insulin, Transferrin, Estradiol and Sodium Selenite). NCI-H1048 cells were plated at 10,000 cells/well of a 24-well plate and NCI-H1876 cells were plated at 20,000 cells/well of a 96-well plate. Compound and media were replenished every two days out to day 11 and 10 respectively. Cells were then trypsinized and counted using either hemocytometer or an automated Countess cell counter.

KAT2B = KAT2B (Homo sapiens, UniProt Q92831); assay: KAT2B degradation, Western Blot (Jess), NCI-H1048 cells; type: cell-based; design: degrader, Western blot (Jess)
Chain of KAT2B (Q92831 whole entry): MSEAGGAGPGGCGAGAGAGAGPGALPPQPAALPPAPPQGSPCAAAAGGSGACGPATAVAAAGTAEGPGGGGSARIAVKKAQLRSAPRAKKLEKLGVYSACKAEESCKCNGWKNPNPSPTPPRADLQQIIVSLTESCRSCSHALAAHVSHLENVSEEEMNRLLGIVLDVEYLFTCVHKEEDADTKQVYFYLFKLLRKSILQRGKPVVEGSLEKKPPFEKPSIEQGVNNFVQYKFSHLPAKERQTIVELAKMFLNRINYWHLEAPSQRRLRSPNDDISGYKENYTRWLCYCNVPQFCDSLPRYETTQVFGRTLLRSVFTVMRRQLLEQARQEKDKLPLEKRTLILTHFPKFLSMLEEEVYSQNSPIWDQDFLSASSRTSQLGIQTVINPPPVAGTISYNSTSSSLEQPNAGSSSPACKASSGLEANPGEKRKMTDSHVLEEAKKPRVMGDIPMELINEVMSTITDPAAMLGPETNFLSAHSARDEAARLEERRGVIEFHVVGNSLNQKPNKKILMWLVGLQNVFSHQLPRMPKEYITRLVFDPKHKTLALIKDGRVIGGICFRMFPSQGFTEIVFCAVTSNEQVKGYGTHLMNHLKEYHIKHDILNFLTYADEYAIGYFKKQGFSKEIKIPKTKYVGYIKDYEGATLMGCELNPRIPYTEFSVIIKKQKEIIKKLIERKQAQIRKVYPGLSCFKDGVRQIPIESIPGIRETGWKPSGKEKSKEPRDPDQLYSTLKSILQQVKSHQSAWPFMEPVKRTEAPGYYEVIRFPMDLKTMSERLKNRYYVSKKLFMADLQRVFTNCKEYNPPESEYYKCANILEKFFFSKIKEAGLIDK
Procedure, shortened: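 DC50 came from protein loss relative to DMSO, measured by Jess capillary immunoblot of RIPA lysates with chemiluminescence read-out. Before lysis, NCI-H1048 cells in 5% FBS HITES medium were exposed to compound for 24 h at 37° C.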

KAT2A [1] = target: T1, KAT2A (Homo sapiens, UniProt Q92830); assay: KAT2A reduction in LASCPC-01 cells; type: cell-based; design: degrader, Western blot
T1 sequence (Q92830 whole entry): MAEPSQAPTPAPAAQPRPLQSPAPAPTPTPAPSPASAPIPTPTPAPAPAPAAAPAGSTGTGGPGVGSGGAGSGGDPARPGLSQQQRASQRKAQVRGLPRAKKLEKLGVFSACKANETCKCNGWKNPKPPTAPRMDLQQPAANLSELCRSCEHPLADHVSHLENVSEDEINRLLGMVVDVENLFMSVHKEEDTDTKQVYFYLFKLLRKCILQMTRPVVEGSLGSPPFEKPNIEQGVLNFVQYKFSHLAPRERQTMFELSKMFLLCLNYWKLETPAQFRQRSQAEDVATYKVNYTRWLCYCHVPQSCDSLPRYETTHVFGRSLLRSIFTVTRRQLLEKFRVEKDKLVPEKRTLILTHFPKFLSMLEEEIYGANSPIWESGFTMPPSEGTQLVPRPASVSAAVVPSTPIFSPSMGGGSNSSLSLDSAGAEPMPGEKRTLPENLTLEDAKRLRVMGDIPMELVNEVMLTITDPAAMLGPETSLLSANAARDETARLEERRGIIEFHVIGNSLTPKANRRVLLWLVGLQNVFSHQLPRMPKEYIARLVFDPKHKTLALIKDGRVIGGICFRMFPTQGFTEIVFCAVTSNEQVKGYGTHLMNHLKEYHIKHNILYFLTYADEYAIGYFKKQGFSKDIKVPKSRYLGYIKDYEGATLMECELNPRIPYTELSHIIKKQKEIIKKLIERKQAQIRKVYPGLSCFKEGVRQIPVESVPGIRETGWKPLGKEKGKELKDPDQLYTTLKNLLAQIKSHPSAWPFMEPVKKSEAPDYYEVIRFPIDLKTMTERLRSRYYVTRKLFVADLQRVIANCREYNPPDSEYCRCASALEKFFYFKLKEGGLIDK
Method: MOLM-13 cells or NCI-H1048 cells were washed with PBS, then lysed with RIPA buffer containing 1×protease and phosphatase inhibitors (SantaCruz Biotechnologies Cat #sc-24948A). Protein was isolated by centrifugation at 12,000×g for 10 minutes at 4° C. and supernatant was collected. Protein was quantified via Bradford assay. Samples were diluted to 4 μg lysate in 16 μL RIPA buffer and then 4 μL of Jess Sample Buffer. Samples were heated at 95° C. for 5 minutes. Samples were loaded onto 12-230 kDa Jess™ Separation Module, 8×25 capillary cartridges (SM-W004, Biotechne). Antibodies loaded were: Primary antibody for KAT2A (GCN5L2 (C26A10) Rabbit mAb (3305, CST)) and for KAT2B (PCAF (C14G9)) Rabbit mAb (3378, CST) at 1:1000 and Anti-Rabbit Detection Module for Jess™ (Cat No #DM-001, Biotechne). Signal was detected by chemiluminescence.
In some embodiments, assessment was performed in LASCPC-01 cells, and reduction of KAT2A and KAT2B levels, including in some cases selectivity for one over the other, was confirmed. In some embodiments, DC50 and/or DC90 were assessed. In some embodiments, DC50 for various compounds was about or no more than about 1 nM. In some embodiments, DC90 for various compounds was about or no more than about 1 nM. In some embodiments, selectivity for the same polypeptide by a compound was observed across multiple types of cells (e.g., when assessed using DC50 and/or DC90). In some embodiments, certain compounds can provide improved properties and/or activities (e.g., potency). Data from certain assessments for certain compounds are presented below as examples (NT: not tested). It has been confirmed that various compounds described herein, including multiple compounds in Table 1, can be deemed to provide further improved properties and/or activities compared to the compound(s) in the table below for certain contexts, aspects, and/or uses.

KAT2A [2] = target: T1, KAT2A; assay: Western blot of KAT2A level in acute myeloid leukemia MOLM-13 cells, 48 h; type: cell-based; design: degrader, Western blot; details: FIG. 2 (A)
Method: FIG. 2. Provided compounds can provide various activities. (A): Provided technologies can reduce KAT2A and KAT2B levels and histone acetylation levels. […] Cell count data after 8 days of treatment with compound 22 relative to DMSO control are presented as examples to confirm inhibition. […] (C): Provided technologies can modulate cell states and induce differentiation. […] EC50=0.3 nM.

GI50 (NCI-H1876 cells): 1 nM
EC90 (KAT2B; 24 h, NCI-H1048, KAT2B, read-out: DC90 (the source's name)): 1.44 nM
DC50 (KAT2B; NCI-H1048, KAT2B, read-out: DC50): 0.04 nM
KAT2B levels (KAT2B; NCI-H1048 cells, FIG. 1): potently reduce KAT2A and KAT2B levels
DC50 (KAT2B; NCI-H1048 cells, KAT2B, 24 h, Western Blot, vs DMSO, read-out: KAT2B NCI-H1048 DC50): < 1 nM
DC50 (KAT2A [1]; LASCPC-01, KAT2A): 0.06 nM
EC90 (KAT2A [1]; LASCPC-01, KAT2A, read-out: DC90 (the source's name)): 0.67 nM
KAT2A levels (KAT2A [1]; LASCPC-01 cells, FIG. 3): potently reduce KAT2A and KAT2B levels
reduction of KAT2A level (KAT2A [2]): confirm such reduction
Structure (SMILES): CN1C[C@H](Nc2cnn(C)c(=O)c2Br)C[C@H](c2ccc(C(=O)N3CCC(CN4CCN(c5ccc6c(c5)CN(C5CCC(=O)NC5=O)C6=O)CC4)CC3)cc2)C1 (stereo partly drawn) [Compound 22, 3-(5-(4-((1-(4-((3R,5R)-5-((5-bromo-1-methyl-6-oxo-1,6-dihydropyridazin-4-yl)amino)-1-methylpiperidin-3-yl)benzoyl)piperidin-4-yl)methyl)piperazin-1-yl)-1-oxoisoindolin-2-yl)piperidine-2,6-dione]
epithelial GSEA (epithelial GSEA): significant upregulation
